Structures are written as SMILES.

This assay has as its target T1, heparanase (Homo sapiens, UniProt Q9Y251).
T1 construct: the supernatant was recovered as cell extract; endogenous in cells; host or cells: A431 cells (human epithelial carcinoma), Triton X-100 lysate supernatant
T1 sequence (Q9Y251 158-543 limits assumed): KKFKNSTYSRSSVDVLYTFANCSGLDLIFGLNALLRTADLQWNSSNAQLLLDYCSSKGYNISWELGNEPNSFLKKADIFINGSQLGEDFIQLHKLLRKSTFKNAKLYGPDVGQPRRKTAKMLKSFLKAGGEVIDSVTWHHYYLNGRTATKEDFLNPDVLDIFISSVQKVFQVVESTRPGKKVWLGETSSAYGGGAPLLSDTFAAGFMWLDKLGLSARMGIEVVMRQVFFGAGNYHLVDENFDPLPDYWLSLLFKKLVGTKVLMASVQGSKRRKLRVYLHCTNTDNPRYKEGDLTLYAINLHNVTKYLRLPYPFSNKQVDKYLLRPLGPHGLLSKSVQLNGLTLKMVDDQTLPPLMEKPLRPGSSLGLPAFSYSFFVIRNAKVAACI
T1 sequence (Q9Y251 36-109 limits assumed): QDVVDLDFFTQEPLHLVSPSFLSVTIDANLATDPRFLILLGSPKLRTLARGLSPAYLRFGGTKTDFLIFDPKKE
In words: Evaluation based on heparanase activity inhibition rate (A431 cell extract, biotinylated heparan sulfate-immobilized plate). Format: biochemical. Conditions: 37° C., 2 hours. On the procedure:
In the primary evaluation using heparanase activity as the index, as described in detail in the examples which follow, biotinylated heparan sulfate was immobilized in 96 wells, after which heparanase was allowed to act in the presence of a drug, and the amount of reduction in biotinylated heparan sulfate was used to evaluate the heparanase activity by the reaction with peroxidase-labeled avidin and coloration.
A431 cells (human epithelial carcinoma cells) were cultured in 10% serum-containing DMEM (Dulbecco's modified Eagle medium). The cultured cells were solubilized in lysis buffer (50 mM Tris, 0.5% TritonX-100, 0.15 M sodium chloride, pH 4.5) and collected with a scraper, and then pipetted and allowed to stand on ice for 30 minutes. This was followed by centrifugation at 10,000 rpm for 10 minutes to remove the insoluble portion, and the supernatant was recovered as cell extract. The amount of protein in the cell extract was measured with a BCA protein assay kit (BCA Protein Assay Kit, PIERCE, CA46141).
The A431 cell extract was then diluted to 500 μg/mL with assay buffer (50 mM HEPES, 50 mM sodium acetate, 150 mM sodium chloride, 9 mM calcium chloride, 0.1% BSA). […] After further rinsing 3 times with PBS-T, TMB reagent (BIO-RAD, 172-1066) was added at 100 μL/well and reacted therewith, the reaction was terminated with 1N sulfuric acid, and the absorbance at 475 nm (OD475) was measured.
Also, DMSO was added to a serial diluent prepared with the aforementioned A431 cell extract assay buffer (cell extract concentrations: 500 μg/mL, 50 μg/mL, 5 μg/mL, 0.5 μg/mL), to a final concentration of 5% without addition of the test compound, to obtain a mixture (solution for calibration curve). The solution for the calibration curve was subjected to the treatment of the same procedure described above, from seeding of the biotinylated heparan sulfate-immobilized plate, and the OD475 was measured. […]

For the compound `O=C1NCCN1` [2-Imidazolidinone, 2-imidazolidinone], the Heparanase inhibition rate (addition concentration 0.5%) came to 99.95%.
With `O=C1CCCN1CCO` [1-(2-Hydroxyethyl)-2-pyrrolidone, 1-(2-hydroxyethyl)-2-pyrrolidone], the Heparanase inhibition rate (addition concentration 0.05%) was 99.00%.
Where the note is “addition concentration 0.05%”, `O=C1NCCN1CCO` [1-(2-Hydroxyethyl)-2-imidazolidinone, 1-(2-hydroxyethyl)-2-imidazolidinone] yielded a Heparanase inhibition rate of 99.40%.

The values are drawn from US8901160B2, “Heparanase activity inhibitor” (Shiseido Company, Ltd., priority 2009, dated 2014).
